# From patent US20070249607A1, “NK-1 AND SEROTONIN TRANSPORTER INHIBITORS” (Bristol-Myers Squibb Company, priority 2006, published 2007)
# Like-named read-outs stand apart in the source and are kept apart here.
# What was measured:
# [1] = biological target: T1, neurokinin-1 (NK-1) receptor (Homo sapiens, UniProt P25103); test: NK-1 Binding assay ([125I] Substance P competition, U373 cell membranes); settings: Table 1; U373 membranes, [125I] Substance P displacement; read-out: NK-1 IC50
# T1 construct: a human glioblastoma-astrocytoma cell line that endogenously expresses the neurokinin-1 (NK-1) receptor; endogenous in cells; host or cells: U373 human glioblastoma-astrocytoma cells (membranes)
# Experimental: NK-1 Binding assay. U373 cells, a human glioblastoma-astrocytoma cell line that endogenously expresses the neurokinin-1 (NK-1) receptor, were grown in a monolayer culture at 37° C. in 5% CO2 and fed with Minimum Essential Medium (MEM) supplemented with 10% fetal bovine serum. Membranes were prepared as follows: Cells were washed twice with ice-cold phosphate-buffered saline (pH 7.4) and then incubated for 5-10 minutes with ice-cold 10 mM Tris buffer (pH 7.4) containing 5 mM EDTA. Cells were removed from plates, homogenized, and centrifuged at 32,000×g for 20 minutes. The resulting supernatant was discarded, and the pellet resuspended by homogenization in 50 mM Tris buffer (pH 7.4) containing 1 mM EDTA and centrifuged at 32,000×g for 20 minutes. The resulting supernatant was discarded, and the pellet resuspended by homogenization in NK-1 binding assay buffer (50 mM Tris-HCL (pH 7.4), 3 mM MnCl2, 200 μg/ml BSA, 5 μg/ml chymostatin, 40 μg/ml bacitracin and 4 μg/ml leupeptin).
# On the day of an experiment the membrane preparation was thawed, homogenized and diluted with NK-1 binding assay buffer to the appropriate concentration. […] Substance P, at a concentration of […], and concentrations of drugs ranging from 10000 to 0.01 nM. Samples were incubated for 30 min at 20° C. then filtered through GF/B glass fiber filters (pretreated with 1% polyethyleneimine and 0.3% Triton X-100) using a Brandel cell harvester. The filters were then washed with 10 ml ice cold 50 mM Tris-HCL (pH 7.4) containing 3 mM MgCl2. […] The amount of radioligand bound in the presence and absence of competitor was analyzed by plotting (-)log drug concentration versus the amount of radioligand specifically bound. The midpoint of the displacement curve (IC50, nM), signifies the potency.
# [2] = biological target: T2, human serotonin transporters (Homo sapiens, UniProt P31645); test: Serotonin transporter binding assay ([3H]-citalopram competition, HEK-hSERT cell membranes)
# T2 construct: expressed in transfected cells
# Experimental: Serotonin transporter binding assay. HEK-293 cells that stably express human serotonin transporters (HEK-hSERT cells) were grown at 37° C. in 5% CO2 as a monolayer in medium consisting of EMEM supplemented with 10% fetal bovine serum and G418 sulfate (500 μg/ml). To prepare membranes for radioligand binding experiments, cells were rinsed twice with phosphate-buffered saline (138 mM NaCl, 4.1 mM KCl, 5.1 mM Na2PO4, 1.5 mM KH2PO4, 11.1 mM glucose, pH 7.4). Cells were transferred from plates to polypropylene tubes (16×100 mm), centrifuged at 1,200×g for 5 min and were frozen at −80° C. until assay. Following centrifugation, pellets were resuspended by homogenization in buffer consisting of 50 mM Tris (pH 7.7 at 25° C.), 120 mM NaCl and 5 mM KCl and then centrifuged at 32,000×g for 10 min. Following centrifugation, supernatants were discarded and pellets were resuspended in buffer consisting of 50 mM Tris (pH 7.4 at 25° C.), 150 mM NaCl and 5 mM KCl. Membrane homogenates (200 μl/plate) were incubated with 1 nM [^3H]-citalopram (specific activity=85 Ci/mmol) and increasing concentrations of test compounds for 1 hr at 25° C. in a total volume of 250 μl. The assay buffer consisted of 50 mM Tris (pH 7.4 at 25° C.), 120 mM NaCl and 5 mM KCl (pH 7.4 with conc. HCl). Plates were incubated for 1 hr at 25° C., then filtered through 0.5% PEI treated Whatman GF/B filters using a Brandel cell harvester. Filters were washed three times with 3 ml of ice-cold tris wash buffer. Non-specific binding was defined with 10 μM fluoxetine. Amount of radioligand bound in the presence and absence of competitor was analyzed by plotting (-)log drug concentration versus the amount of radioligand specifically bound. The midpoint of the displacement curve (IC50, nM), signifies the potency. Ki values can be calculated using the method of Cheng and Prusoff (Cheng and Prusoff, BiochemicalPharmacology, Vol 22, pp. 3099-3108, Pergamon Press (1973)).
# [3] = Table 1, HEK-hSERT membranes, [3H]-citalopram displacement, read-out: SERT IC50
# T1 sequence (P25103 whole entry): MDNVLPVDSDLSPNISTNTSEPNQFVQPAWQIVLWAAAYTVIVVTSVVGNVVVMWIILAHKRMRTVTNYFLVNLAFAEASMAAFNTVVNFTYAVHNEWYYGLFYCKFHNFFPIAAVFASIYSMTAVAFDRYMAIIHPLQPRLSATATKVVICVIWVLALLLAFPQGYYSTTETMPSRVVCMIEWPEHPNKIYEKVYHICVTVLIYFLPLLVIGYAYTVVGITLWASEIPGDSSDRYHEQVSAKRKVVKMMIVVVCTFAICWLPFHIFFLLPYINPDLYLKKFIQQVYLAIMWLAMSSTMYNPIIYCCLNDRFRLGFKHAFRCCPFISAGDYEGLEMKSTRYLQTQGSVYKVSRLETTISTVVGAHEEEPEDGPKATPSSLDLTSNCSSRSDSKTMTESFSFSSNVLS
# T2 sequence (P31645 whole entry): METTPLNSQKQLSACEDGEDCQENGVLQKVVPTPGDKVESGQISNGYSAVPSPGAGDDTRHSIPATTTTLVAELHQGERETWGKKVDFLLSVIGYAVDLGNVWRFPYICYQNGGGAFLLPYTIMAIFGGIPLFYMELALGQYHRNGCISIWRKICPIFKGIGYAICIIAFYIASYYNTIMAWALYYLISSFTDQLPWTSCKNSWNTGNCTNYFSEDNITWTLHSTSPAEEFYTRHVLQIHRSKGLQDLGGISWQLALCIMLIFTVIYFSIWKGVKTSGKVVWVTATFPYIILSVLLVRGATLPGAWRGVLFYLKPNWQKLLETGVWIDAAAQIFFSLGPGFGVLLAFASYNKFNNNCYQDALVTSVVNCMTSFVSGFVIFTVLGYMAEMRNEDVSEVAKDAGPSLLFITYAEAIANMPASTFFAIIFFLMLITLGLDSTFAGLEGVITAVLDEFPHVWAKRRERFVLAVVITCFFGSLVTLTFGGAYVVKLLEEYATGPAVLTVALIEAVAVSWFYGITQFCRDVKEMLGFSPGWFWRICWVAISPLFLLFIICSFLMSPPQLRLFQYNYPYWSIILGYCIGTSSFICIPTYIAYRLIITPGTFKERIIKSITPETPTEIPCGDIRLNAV
SMILES,IC50 [1],"IC50 [2, 3]",IC50 [2]
COc1ncc(-c2cc(COCC3(c4ccccc4)CCNCC3)cc(C(F)(F)F)c2)cn1,0.01 to 100 nM,0.01 to 100 nM,–
N#Cc1ccc(-c2cc(COCC3(c4ccccc4)CCNCC3)cc(C(F)(F)F)c2)cc1,0.01 to 100 nM,0.01 to 100 nM,–
CN1CCN(c2cc(-c3cc(COCC4(c5ccccc5)CCNCC4)cc(C(F)(F)F)c3)ccn2)CC1,> 300 nM,100 to 300 nM,–
Fc1cc(-c2cc(COCC3(c4ccccc4)CCNCC3)cc(C(F)(F)F)c2)c(Cl)cn1,0.01 to 100 nM,0.01 to 100 nM,–
COc1cc(-c2cc(COCC3(c4ccccc4)CCNCC3)cc(C(F)(F)F)c2)c(F)cn1,100 to 300 nM,0.01 to 100 nM,–
COc1cc(-c2cc(COCC3(c4ccccc4)CCNCC3)cc(C(F)(F)F)c2)c(Cl)cn1,> 300 nM,0.01 to 100 nM,–
FC(F)(F)c1cc(COCC2(c3ccccc3)CCNCC2)cc(-c2ccccc2C(F)(F)F)c1,> 300 nM,100 to 300 nM,–
COc1cc(-c2cc(COCC3(c4ccccc4)CCNCC3)cc(C(F)(F)F)c2)ccn1,0.01 to 100 nM,0.01 to 100 nM,–
FC(F)(F)c1cc(COCC2(c3ccccc3)CCNCC2)cc(-c2cnc3ccccc3c2)c1,100 to 300 nM,0.01 to 100 nM,–
COc1ncc(-c2cc(COCC3(c4ccccc4)CCNCC3)cc(C(F)(F)F)c2)c(OC)n1,100 to 300 nM,0.01 to 100 nM,–
Nc1ccc(-c2cc(COCC3(c4ccccc4)CCNCC3)cc(C(F)(F)F)c2)cn1,0.01 to 100 nM,0.01 to 100 nM,–
FC(F)(F)c1cc(COCC2(c3ccccc3)CCNCC2)cc(-c2ccc3cnccc3c2)c1,100 to 300 nM,0.01 to 100 nM,–
FC(F)(F)c1cc(COCC2(c3ccccc3)CCNCC2)cc(-c2ccc(Cl)nc2)c1,0.01 to 100 nM,0.01 to 100 nM,–
FC(F)(F)c1cc(COCC2(c3ccccc3)CCNCC2)cc(-c2cccnc2Cl)c1,0.01 to 100 nM,0.01 to 100 nM,–
Fc1ncccc1-c1cc(COCC2(c3ccccc3)CCNCC2)cc(C(F)(F)F)c1,0.01 to 100 nM,0.01 to 100 nM,–
FC(F)(F)c1cc(COCC2(c3ccccc3)CCNCC2)cc(-c2ccc(Cl)nc2Cl)c1,0.01 to 100 nM,0.01 to 100 nM,–
Cc1ccncc1-c1cc(COCC2(c3ccccc3)CCNCC2)cc(C(F)(F)F)c1,> 300 nM,0.01 to 100 nM,–
O=[N+]([O-])c1cccc(-c2cc(COCC3(c4ccccc4)CCNCC3)cc(C(F)(F)F)c2)c1,0.01 to 100 nM,0.01 to 100 nM,–
Nc1cccc(-c2cc(COCC3(c4ccccc4)CCNCC3)cc(C(F)(F)F)c2)c1,0.01 to 100 nM,0.01 to 100 nM,–
FC(F)(F)c1cc(COCC2(c3ccccc3)CCNCC2)cc(-c2ccc(Cl)cc2Cl)c1,0.01 to 100 nM,0.01 to 100 nM,–
FC(F)(F)c1cc(COCC2(c3ccccc3)CCNCC2)cc(-c2cccc3ccccc23)c1,> 300 nM,100 to 300 nM,–
Fc1ccc(-c2cc(COCC3(c4ccccc4)CCNCC3)cc(C(F)(F)F)c2)cc1,0.01 to 100 nM,0.01 to 100 nM,–
FC(F)(F)c1cc(COCC2(c3ccccc3)CCNCC2)cc(-c2ccc(Cl)cc2)c1,0.01 to 100 nM,0.01 to 100 nM,–

SMILES,IC50 [1],"IC50 [2, 3]",IC50 [2]
Cc1ccc(-c2cc(COCC3(c4ccccc4)CCNCC3)cc(C(F)(F)F)c2)cc1,0.01 to 100 nM,0.01 to 100 nM,–
COc1ccc(-c2cc(COCC3(c4ccccc4)CCNCC3)cc(C(F)(F)F)c2)cc1,0.01 to 100 nM,0.01 to 100 nM,–
Cc1cccc(-c2cc(COCC3(c4ccccc4)CCNCC3)cc(C(F)(F)F)c2)c1,0.01 to 100 nM,0.01 to 100 nM,–
Fc1ccc(-c2cc(COCC3(c4ccccc4)CCNCC3)cc(C(F)(F)F)c2)cc1Cl,0.01 to 100 nM,0.01 to 100 nM,–
Cc1ccc(-c2cc(COCC3(c4ccccc4)CCNCC3)cc(C(F)(F)F)c2)s1,0.01 to 100 nM,0.01 to 100 nM,–
FC(F)(F)c1cc(COCC2(c3ccccc3)CCNCC2)cc(-n2nnnc2C(F)(F)F)c1,> 300 nM,0.01 to 100 nM,–
COc1ccc(-c2nnn(C)n2)cc1COCC1(c2ccccc2)CCNCC1,> 300 nM,100 to 300 nM,–
FC(F)(F)c1cc(COCC2(c3ccccc3)CCNCC2)cc(-c2nnn[nH]2)c1,100 to 300 nM,0.01 to 100 nM,–
Cn1nnc(-c2cc(COCC3(c4ccccc4)CCNCC3)cc(C(F)(F)F)c2)n1,0.01 to 100 nM,0.01 to 100 nM,–
Cn1nnnc1-c1cc(COCC2(c3ccccc3)CCNCC2)cc(C(F)(F)F)c1,0.01 to 100 nM,0.01 to 100 nM,–
Cc1nnnn1-c1cc(COCC2(c3ccccc3)CCNCC2)cc(C(F)(F)F)c1,100 to 300 nM,0.01 to 100 nM,–
COc1ccc(-n2nnnc2C)cc1COCC1(c2ccccc2)CCNCC1,0.01 to 100 nM,0.01 to 100 nM,–
COc1ccc(-c2ccncc2)cc1COCC1(c2ccccc2)CCNCC1,> 300 nM,0.01 to 100 nM,–
COc1ccc(-c2ccc(C#N)nc2)cc1COCC1(c2ccccc2)CCNCC1,100 to 300 nM,0.01 to 100 nM,–
COc1ccc(-c2ccc(C#N)cc2)cc1COCC1(c2ccccc2)CCNCC1,0.01 to 100 nM,0.01 to 100 nM,–
N#Cc1ccc(-c2cc(COCC3(c4ccc(F)cc4)CCNCC3)cc(C(F)(F)F)c2)cc1,0.01 to 100 nM,0.01 to 100 nM,–
CN1CCC(COCc2cc(-c3ccc(C#N)cc3)cc(C(F)(F)F)c2)(c2ccccc2)CC1,0.01 to 100 nM,–,0.01 to 100 nM
CN1CCC(COCc2cc(-c3ccncc3)cc(C(F)(F)F)c2)(c2ccccc2)CC1,0.01 to 100 nM,–,0.01 to 100 nM
CN1CCC(COCc2cc(-c3ccc(C#N)cc3)cc(C(F)(F)F)c2)(c2ccc(F)cc2)CC1,0.01 to 100 nM,–,0.01 to 100 nM
CC(OCC1(c2ccccc2)CCNCC1)c1cc(-c2ccc(C#N)cc2)cc(C(F)(F)F)c1 (centres unmarked),0.01 to 100 nM,0.01 to 100 nM,–
CC(OCC1(c2ccccc2)CCN(C)CC1)c1cc(-c2ccc(C#N)cc2)cc(C(F)(F)F)c1 (centres unmarked),0.01 to 100 nM,–,0.01 to 100 nM
C[C@@H](OCC1(c2ccccc2)CCNCC1)c1cc(-c2ccc(C#N)cc2)cc(C(F)(F)F)c1,0.01 to 100 nM,0.01 to 100 nM,–
N#Cc1ccc(-c2cc(Br)cc(COCC3(c4ccccc4)CCNCC3)c2)cc1,0.01 to 100 nM,0.01 to 100 nM,–
